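Each compound was tested at five concentrations against cells in 96-well plates for 48 hours. Abbreviation: GI50, concentration required for 50% inhibition of growth.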 Activity calls are given as the source filed them. Cut-off read from the data, not from the text of the source: active = GI50 up to about 1.1 µM and inactive = higher.
Key:
Assay in all cases: NCI-60 cell line screen, 48 h
A549 = test system: A549
UACC-257 = test system: UACC-257
RPMI-8226 = test system: RPMI-8226
HOP-92 = test system: HOP-92
NCI-H226 = test system: NCI-H226
EKVX = test system: EKVX
CCRF-CEM = test system: CCRF-CEM
HT-29 = test system: HT-29
CAKI-1 = test system: CAKI-1
HCC 2998 = test system: HCC 2998
OVCAR-3 = test system: OVCAR-3
NCI-H460 = test system: NCI-H460
SK-MEL-28 = test system: SK-MEL-28
UO-31 = test system: UO-31
KM12 = test system: KM12
SR = test system: SR

Measured: GI50

CCCCCN(CCCCC)C(=O)[C@H](CCC(=O)O)NC(=O)c1cc2ccccc2[nH]1
inactive: A549 88.5 µM | UACC-257 > 100 µM | RPMI-8226 21.8 µM | HOP-92 32.3 µM | NCI-H226 36.6 µM | EKVX > 100 µM | CCRF-CEM 33.4 µM | HT-29 59.6 µM | CAKI-1 51.9 µM | HCC 2998 33.4 µM | OVCAR-3 42.7 µM | NCI-H460 39.3 µM | SK-MEL-28 29.8 µM | UO-31 31 µM | KM12 50.4 µM

O=c1nc2sc3ccc4ccccc4c3n2nc1O
inactive: A549 > 100 µM | RPMI-8226 > 10 µM | NCI-H226 30.5 µM | EKVX 60 µM | CCRF-CEM 40.1 µM | HT-29 47.9 µM | HCC 2998 54.8 µM | OVCAR-3 55.2 µM | NCI-H460 39.3 µM | SK-MEL-28 40.4 µM | KM12 > 100 µM

O=C1/C(=C/c2ccccc2Cl)COc2ccc(Br)cc21
inactive: A549 97.3 µM | UACC-257 > 100 µM | RPMI-8226 2.1 µM | HOP-92 46.3 µM | EKVX > 100 µM | CCRF-CEM 4.49 µM | HT-29 > 100 µM | HCC 2998 > 100 µM | OVCAR-3 37.3 µM | NCI-H460 > 100 µM | SK-MEL-28 > 100 µM | UO-31 55.7 µM | KM12 22.4 µM

Cc1ccc(C)c(N2C(=O)C(=O)C(c3nc4ccccc4s3)/C(=N/NC(=O)NN)C2=O)c1 (stereo not drawn)
inactive: A549 > 100 µM | UACC-257 > 100 µM | SR > 100 µM | HOP-92 > 100 µM | NCI-H226 > 100 µM | EKVX > 100 µM | CCRF-CEM > 100 µM | HT-29 > 100 µM | CAKI-1 > 100 µM | HCC 2998 > 100 µM | OVCAR-3 > 100 µM | NCI-H460 > 100 µM | SK-MEL-28 > 100 µM | UO-31 > 100 µM | KM12 > 100 µM

c1ccc(COc2cccc3cccnc23)cc1
inactive: A549 > 100 µM | UACC-257 > 100 µM | RPMI-8226 > 100 µM | HOP-92 28.4 µM | NCI-H226 > 100 µM | EKVX 83.9 µM | CCRF-CEM 31.5 µM | HT-29 80.9 µM | HCC 2998 > 100 µM | OVCAR-3 63.5 µM | NCI-H460 > 100 µM | SK-MEL-28 > 100 µM | UO-31 56.9 µM | KM12 61.4 µM

— ChEMBL document CHEMBL1201862, “PubChem BioAssay data set” (2004)
